Measured values published in ChEMBL document CHEMBL1201862, “PubChem BioAssay data set” (2004).
Calls of active or inactive are those of the source.

How the values were obtained:
[1] = target: Voltage-gated inwardly rectifying potassium channel KCNH2 (Homo sapiens, UniProt Q12809); conditions: Potency;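 also: confirmatory quantitative high-throughput screen measuring inhibition of hERG channel activity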
HeLa = assay: HeLa cell cytotoxicity, dose response, cytotoxicity control for MITF activator project, CellTiter-Glo luminescence, cherry-pick samples (AID 540259); type: functional, cell-based; conditions: Homo sapiens
[2] = target: T1, Type-1 angiotensin II receptor (Homo sapiens, UniProt P30556); assay: AT1 receptor agonists, dose response, selectivity assay for APJ receptor agonist project, cell-based, uHTS hits (AID 488865); type: functional;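 also: beta-arrestin recruitment to AT1 measured by enzyme fragment complementation luminescence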
T1 sequence (P30556 whole entry): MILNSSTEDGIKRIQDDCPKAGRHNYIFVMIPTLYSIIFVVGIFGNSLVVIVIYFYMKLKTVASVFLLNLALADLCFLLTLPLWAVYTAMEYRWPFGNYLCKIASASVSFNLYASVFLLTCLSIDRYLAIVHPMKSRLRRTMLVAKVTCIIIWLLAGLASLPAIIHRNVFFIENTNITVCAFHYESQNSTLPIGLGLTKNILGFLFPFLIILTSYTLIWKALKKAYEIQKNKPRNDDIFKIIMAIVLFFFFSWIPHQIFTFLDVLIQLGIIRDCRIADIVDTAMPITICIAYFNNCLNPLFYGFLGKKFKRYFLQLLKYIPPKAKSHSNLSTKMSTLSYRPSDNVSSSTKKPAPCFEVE

[3] = target: T2, Short transient receptor potential channel 4 (Mus musculus, UniProt Q9QUQ5); assay: mouse TRPC4 channel activators, dose response, cell-based, HEK293 TRPC4/mu-opioid, Fluo-4 calcium (AID 434937); type: functional
T2 sequence (Q9QUQ5 whole entry): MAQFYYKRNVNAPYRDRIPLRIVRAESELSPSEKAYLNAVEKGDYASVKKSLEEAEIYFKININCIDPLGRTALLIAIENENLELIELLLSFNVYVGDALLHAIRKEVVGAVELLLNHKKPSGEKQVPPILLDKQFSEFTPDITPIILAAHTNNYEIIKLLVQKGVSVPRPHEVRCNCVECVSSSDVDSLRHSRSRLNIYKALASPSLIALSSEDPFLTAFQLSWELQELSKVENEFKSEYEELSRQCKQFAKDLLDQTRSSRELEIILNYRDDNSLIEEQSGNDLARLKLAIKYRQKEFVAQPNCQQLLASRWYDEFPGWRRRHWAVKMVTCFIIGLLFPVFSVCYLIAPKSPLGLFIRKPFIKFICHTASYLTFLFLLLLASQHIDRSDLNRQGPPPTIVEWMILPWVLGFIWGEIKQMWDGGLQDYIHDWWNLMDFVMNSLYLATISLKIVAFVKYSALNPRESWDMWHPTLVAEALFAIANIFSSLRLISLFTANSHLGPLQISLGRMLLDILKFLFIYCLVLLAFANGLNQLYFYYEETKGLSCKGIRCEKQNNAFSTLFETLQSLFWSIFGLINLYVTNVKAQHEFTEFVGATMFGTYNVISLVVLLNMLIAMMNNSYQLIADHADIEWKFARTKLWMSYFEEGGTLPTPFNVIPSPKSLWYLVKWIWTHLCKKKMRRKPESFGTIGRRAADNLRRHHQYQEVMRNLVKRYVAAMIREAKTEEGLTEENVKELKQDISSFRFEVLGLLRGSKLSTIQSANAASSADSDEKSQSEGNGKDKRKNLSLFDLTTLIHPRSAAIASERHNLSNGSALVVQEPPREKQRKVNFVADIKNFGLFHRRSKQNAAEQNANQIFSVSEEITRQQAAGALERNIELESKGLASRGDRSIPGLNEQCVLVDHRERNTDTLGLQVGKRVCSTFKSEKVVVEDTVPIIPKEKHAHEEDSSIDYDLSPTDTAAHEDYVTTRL

Coagulation factor XII = target: T3, Coagulation factor XII (Homo sapiens, UniProt P00748); type: functional;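 also: activated factor XIIa alpha cleaving a fluorogenic AMC peptide substrate; inhibitor potency from loss of enzyme activity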
T3 sequence (P00748 whole entry): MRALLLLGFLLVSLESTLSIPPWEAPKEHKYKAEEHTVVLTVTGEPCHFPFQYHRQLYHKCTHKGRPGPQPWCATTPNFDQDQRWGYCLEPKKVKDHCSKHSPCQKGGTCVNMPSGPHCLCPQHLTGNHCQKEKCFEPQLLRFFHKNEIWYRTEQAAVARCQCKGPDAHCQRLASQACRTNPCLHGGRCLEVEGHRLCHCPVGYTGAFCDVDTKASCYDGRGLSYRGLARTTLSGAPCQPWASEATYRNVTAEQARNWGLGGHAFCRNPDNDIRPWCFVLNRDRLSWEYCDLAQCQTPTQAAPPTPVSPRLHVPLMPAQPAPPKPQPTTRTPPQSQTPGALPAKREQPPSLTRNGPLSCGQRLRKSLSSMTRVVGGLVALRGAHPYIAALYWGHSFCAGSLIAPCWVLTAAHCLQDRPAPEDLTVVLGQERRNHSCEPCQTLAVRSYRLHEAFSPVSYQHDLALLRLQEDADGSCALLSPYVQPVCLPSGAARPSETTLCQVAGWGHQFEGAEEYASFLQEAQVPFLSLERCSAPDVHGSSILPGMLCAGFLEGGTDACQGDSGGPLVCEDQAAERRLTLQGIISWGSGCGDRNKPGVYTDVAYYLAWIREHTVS

Fatty acid synthase [4] = target: T4, Fatty acid synthase (Homo sapiens, UniProt P49327); assay: FAS thioesterase domain inhibitors, dose response, biochemical, endpoint fluorescence intensity, uHTS hits (AID 624327); type: functional;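 also: fluorescence from hydrolysis of an O-methyl fluorescein acyl ester substrate by the enzyme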
Fatty acid synthase [5] = target: T4, Fatty acid synthase; assay: FAS thioesterase domain inhibitors, dose response, biochemical, kinetic fluorescence intensity (AID 624326); type: functional;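 also: rate of fluorescence rise from hydrolysis of a fluorogenic O-methyl fluorescein ester substrate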
HEK293 = assay: cells; type: functional, cell-based; conditions: Homo sapiens
[6] = target: T5, Nuclear receptor subfamily 0 group B member 1 (Homo sapiens, UniProt P51843); assay: Luminescence-based cell-based high throughput dose response assay for inhibitors of the orphan nuclear receptor subfamily 0, group B, member 1 (DAX1; NR0B1). [Related pubchem assays (depositor defined):AID504766, AID504790]; type: functional
T5 sequence (P51843 whole entry): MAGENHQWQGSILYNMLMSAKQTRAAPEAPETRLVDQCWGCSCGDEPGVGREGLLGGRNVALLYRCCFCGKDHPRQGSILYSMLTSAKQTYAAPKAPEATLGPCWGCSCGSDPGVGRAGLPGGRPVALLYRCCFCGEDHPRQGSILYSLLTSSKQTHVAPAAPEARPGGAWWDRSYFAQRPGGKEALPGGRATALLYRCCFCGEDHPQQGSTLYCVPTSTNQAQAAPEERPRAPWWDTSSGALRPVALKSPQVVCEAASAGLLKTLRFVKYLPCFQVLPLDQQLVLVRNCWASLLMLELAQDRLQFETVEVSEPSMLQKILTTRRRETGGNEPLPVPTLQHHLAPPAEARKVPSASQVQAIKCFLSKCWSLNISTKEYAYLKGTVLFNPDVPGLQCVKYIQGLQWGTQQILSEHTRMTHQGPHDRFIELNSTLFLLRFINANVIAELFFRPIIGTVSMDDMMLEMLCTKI

Hexokinase HKDC1 = Hexokinase HKDC1 (Homo sapiens, UniProt Q2TB90); assay: SAR analysis of small molecule inhibitors of hexokinase domain containing I (HKDC1). [Related pubchem assays (depositor defined):AID493160, AID493190]; type: functional
Hexokinase-1 = Hexokinase-1 (Homo sapiens, UniProt P19367); assay: SAR analysis of small molecule inhibitors of hexokinase domain containing I (HKDC1) in the hexokinase 1 selectivity assay. [Related pubchem assays (depositor defined):AID493160, AID493190]; type: functional
Cytochrome P450 1A2 = target: T6, Cytochrome P450 1A2 (Homo sapiens, UniProt P05177);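 also: PubChem cytochrome P450 panel assay, CYP1A2 panel member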
T6 sequence (P05177 whole entry): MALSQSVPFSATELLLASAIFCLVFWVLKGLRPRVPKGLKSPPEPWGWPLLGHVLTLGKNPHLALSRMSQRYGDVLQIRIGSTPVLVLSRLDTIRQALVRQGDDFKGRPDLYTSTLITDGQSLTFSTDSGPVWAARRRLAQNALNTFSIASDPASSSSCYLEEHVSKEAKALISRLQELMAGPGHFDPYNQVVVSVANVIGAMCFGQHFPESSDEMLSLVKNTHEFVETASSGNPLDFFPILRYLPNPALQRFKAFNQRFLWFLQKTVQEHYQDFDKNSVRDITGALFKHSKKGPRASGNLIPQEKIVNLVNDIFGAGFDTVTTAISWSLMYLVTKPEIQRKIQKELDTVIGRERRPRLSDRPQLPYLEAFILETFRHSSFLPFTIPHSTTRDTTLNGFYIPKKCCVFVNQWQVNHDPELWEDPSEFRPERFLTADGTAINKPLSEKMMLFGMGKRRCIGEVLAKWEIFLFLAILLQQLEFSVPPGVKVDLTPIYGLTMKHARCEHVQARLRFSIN

Cytochrome P450 3A4 = Cytochrome P450 3A4 (Homo sapiens, UniProt P08684);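 also: CYP3A4 tested as one member of a cytochrome P450 panel screen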
Cytochrome P450 2D6 = Cytochrome P450 2D6 (Homo sapiens, UniProt P10635);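 also: CYP2D6 member of a cytochrome P450 panel assay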
Cytochrome P450 2D6, sequence (P10635 whole entry): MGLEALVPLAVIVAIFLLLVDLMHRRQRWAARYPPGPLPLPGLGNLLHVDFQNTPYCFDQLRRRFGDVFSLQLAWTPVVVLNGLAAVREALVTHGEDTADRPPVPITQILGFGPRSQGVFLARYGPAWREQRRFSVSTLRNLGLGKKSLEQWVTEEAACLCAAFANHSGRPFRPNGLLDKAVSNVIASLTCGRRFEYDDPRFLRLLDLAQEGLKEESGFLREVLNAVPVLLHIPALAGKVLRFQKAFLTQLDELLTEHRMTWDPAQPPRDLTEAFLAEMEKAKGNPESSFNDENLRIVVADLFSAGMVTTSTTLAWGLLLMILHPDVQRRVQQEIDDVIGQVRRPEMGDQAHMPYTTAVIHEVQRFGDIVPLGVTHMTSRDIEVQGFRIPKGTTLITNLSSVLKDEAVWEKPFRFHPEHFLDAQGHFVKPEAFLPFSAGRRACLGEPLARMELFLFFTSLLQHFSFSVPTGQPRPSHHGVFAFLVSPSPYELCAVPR

Hexokinase-1, sequence (P19367 whole entry, the tested form may be a part): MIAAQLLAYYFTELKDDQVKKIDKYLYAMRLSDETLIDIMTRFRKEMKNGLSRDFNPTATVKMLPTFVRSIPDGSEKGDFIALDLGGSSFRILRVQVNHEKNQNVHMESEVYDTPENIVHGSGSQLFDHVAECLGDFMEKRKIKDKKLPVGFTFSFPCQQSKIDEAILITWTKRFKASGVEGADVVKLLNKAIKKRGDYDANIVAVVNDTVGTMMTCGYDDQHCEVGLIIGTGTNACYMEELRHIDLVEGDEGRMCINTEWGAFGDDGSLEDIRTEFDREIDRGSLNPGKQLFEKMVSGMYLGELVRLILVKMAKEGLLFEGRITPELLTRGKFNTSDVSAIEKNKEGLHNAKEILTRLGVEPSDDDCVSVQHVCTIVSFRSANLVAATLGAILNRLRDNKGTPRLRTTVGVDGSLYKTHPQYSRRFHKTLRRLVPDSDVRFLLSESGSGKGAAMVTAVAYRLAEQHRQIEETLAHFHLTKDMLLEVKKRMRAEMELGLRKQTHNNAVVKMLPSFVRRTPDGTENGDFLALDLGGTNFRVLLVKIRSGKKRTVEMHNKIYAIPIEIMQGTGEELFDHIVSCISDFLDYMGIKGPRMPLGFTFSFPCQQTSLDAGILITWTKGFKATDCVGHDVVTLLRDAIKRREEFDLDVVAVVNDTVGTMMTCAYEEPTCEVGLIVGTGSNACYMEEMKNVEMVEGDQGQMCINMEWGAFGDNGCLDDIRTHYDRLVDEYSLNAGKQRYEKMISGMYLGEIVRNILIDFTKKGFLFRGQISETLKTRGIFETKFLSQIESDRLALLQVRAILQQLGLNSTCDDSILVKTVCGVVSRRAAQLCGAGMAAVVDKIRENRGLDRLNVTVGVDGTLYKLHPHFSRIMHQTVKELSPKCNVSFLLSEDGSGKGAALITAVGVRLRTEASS
Hexokinase HKDC1, sequence (Q2TB90 whole entry, the tested form may be a part): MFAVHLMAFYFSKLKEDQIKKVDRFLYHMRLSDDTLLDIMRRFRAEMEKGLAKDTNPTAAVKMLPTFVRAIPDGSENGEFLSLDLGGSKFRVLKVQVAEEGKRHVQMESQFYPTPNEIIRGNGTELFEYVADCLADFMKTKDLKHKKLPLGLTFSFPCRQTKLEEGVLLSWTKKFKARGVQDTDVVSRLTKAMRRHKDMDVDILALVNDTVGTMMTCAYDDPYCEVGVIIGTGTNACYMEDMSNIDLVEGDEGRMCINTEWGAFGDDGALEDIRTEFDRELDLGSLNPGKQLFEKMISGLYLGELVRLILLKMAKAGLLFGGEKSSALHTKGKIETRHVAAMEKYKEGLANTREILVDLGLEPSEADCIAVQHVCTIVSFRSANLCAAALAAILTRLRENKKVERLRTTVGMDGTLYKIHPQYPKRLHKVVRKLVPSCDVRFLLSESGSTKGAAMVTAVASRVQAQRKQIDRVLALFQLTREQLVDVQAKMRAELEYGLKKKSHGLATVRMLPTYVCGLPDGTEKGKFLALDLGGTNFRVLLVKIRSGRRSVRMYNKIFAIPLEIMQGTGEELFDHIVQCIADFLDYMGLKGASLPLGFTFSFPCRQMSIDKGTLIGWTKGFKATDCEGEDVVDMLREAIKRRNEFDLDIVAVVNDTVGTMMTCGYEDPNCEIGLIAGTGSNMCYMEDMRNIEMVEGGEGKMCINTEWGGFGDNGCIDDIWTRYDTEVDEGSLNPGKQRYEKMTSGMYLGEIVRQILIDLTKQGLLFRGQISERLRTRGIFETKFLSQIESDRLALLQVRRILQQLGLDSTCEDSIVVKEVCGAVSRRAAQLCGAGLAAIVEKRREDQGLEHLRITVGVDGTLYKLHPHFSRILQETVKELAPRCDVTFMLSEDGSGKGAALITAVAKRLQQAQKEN
T4 sequence (P49327 whole entry, the tested form may be a part): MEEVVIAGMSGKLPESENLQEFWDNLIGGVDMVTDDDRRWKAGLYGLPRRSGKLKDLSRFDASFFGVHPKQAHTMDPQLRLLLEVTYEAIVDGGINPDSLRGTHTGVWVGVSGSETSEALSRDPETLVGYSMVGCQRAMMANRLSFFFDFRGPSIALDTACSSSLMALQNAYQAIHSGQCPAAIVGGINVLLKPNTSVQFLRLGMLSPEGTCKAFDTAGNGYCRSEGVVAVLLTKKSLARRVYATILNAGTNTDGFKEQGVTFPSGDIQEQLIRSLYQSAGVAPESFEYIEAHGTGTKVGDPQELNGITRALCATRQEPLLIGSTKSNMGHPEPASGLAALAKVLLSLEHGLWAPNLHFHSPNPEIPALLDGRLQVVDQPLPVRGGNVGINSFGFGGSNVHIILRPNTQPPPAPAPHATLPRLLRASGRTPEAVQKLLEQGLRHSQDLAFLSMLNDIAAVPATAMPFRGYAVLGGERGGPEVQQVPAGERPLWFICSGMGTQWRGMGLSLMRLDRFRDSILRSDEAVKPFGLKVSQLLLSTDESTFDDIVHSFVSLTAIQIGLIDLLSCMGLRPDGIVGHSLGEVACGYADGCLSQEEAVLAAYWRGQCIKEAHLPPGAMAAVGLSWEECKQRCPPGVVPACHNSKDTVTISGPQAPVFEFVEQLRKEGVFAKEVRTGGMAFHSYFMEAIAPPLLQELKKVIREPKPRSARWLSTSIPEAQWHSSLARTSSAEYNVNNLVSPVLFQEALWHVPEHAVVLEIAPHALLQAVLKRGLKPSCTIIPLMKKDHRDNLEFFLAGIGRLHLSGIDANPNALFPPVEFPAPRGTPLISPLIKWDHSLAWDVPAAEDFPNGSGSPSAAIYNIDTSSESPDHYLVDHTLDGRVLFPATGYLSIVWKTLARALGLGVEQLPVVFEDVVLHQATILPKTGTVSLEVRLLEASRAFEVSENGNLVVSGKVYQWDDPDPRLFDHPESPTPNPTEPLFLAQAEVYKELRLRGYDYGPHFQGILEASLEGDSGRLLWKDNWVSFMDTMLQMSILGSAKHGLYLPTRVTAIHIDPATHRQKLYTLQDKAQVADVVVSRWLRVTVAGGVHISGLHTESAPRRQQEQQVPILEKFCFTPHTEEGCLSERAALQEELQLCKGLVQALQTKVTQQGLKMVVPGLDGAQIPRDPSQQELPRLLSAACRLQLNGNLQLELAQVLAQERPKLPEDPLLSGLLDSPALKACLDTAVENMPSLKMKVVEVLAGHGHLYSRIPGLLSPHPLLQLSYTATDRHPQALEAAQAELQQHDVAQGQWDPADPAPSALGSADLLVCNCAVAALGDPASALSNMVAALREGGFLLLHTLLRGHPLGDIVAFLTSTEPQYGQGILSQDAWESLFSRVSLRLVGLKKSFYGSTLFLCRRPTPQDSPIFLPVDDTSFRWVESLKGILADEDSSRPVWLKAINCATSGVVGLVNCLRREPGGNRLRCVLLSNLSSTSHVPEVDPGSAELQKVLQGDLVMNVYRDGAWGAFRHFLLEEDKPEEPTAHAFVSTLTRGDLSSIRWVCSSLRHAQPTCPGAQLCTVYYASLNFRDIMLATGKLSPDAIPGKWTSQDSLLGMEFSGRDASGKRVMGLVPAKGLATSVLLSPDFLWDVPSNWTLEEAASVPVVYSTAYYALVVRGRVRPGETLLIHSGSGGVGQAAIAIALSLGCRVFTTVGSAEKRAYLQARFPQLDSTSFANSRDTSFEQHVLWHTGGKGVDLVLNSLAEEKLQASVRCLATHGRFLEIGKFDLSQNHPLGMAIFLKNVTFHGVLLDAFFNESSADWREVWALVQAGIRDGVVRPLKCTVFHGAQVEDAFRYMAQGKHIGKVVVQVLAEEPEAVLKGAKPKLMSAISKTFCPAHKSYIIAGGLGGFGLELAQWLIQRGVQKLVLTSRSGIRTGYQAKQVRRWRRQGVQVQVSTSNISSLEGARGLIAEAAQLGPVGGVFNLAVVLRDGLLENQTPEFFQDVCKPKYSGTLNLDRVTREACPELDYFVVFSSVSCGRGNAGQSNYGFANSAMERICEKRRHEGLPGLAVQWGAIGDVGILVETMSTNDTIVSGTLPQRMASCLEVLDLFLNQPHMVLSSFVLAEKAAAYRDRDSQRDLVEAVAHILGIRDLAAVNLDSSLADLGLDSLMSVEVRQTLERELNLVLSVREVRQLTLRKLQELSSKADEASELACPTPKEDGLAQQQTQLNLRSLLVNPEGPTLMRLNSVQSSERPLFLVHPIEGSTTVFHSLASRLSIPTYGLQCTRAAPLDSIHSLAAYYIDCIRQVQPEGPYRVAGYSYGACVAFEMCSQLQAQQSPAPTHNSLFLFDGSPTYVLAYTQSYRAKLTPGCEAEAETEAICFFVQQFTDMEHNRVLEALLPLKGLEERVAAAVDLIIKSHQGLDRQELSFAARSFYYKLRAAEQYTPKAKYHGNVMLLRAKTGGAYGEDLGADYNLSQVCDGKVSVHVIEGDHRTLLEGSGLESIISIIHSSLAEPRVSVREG

`C[C@]12CC[C@@H](O)CC1CC[C@@H]1[C@@H]2CC[C@]2(C)C(=O)CC[C@@H]12` (some centres not stated) was tested, and the AC50 [1] was 25.1 µM (inconclusive).
`Cc1nc(C(=O)Nc2ccccc2)sc1C(=O)Nc1ccccc1` was tested, and the AC50 (HeLa) was 58.6 µM (active).
In the case of `CC1CCCCN1S(=O)(=O)c1ccc(C(=O)N(CCCN(C)C)c2nc3ccc(Br)cc3s2)cc1` (configuration not stated), the EC50 [2] is reported as > 100 µM (inactive) and the EC50 [3] is reported as 4.73 µM (active).
For `CN(C)S(=O)(=O)Oc1ccsc1C(=O)Nc1ccc(Cl)c(Cl)c1`, the IC50 (Coagulation factor XII) was > 50 µM (inactive).
In the case of `O=S(=O)(c1ccccc1)n1ccc(-c2cnc(-c3ccccc3)s2)n1`, the IC50 (Fatty acid synthase [4]) is reported as 7.41 µM (active), the AC50 (HeLa) is reported as 101 µM (active) and the IC50 (Fatty acid synthase [5]) is reported as 6.85 µM (active).
For `CCC(c1nnnn1Cc1ccccc1)N(Cc1cc2cc(OC)ccc2[nH]c1=O)CC1CCCO1` (configuration not stated), the EC50 [2] was > 100 µM (inactive).
For `Cc1ccc2nc(N3CCOCC3)c(C=O)cc2c1`, the IC50 (HEK293) was > 67.5 µM (inactive) and the IC50 [6] was > 67.5 µM (inactive).
`CN1CCN(CCNC(=O)c2cn(Cc3ccccc3F)nn2)CC1` was tested, and the IC50 (Coagulation factor XII) was > 50 µM (inactive).
For `N#Cc1ccc(CSc2nnc(NC(=O)c3ccco3)s2)cc1`, the IC50 (Hexokinase HKDC1) was > 80 µM (inactive) and the IC50 (Hexokinase-1) was > 80 µM (inactive).
With `Cc1cccc(/C=C\c2nc3ccccc3c(=O)n2Cc2ccccc2)c1` the IC50 (Hexokinase HKDC1) was > 80 µM (inactive) and the IC50 (Hexokinase-1) was > 80 µM (inactive).
`COc1ccc(S(=O)(=O)N2CCN(C(=O)c3ccc(O)nn3)CC2)cc1OC` was tested, and the IC50 (HEK293) was > 67.5 µM (inactive) and the IC50 [6] was > 67.5 µM (inactive).
For `COc1cccc(C(=O)NCCN2CCN(c3ccc(Cl)cc3)CC2)c1`, the AC50 (Cytochrome P450 1A2) was 12.6 µM (inconclusive), the AC50 (Cytochrome P450 3A4) was 15.8 µM (inconclusive) and the AC50 [1] was 1 µM (inconclusive). The AC50 (Cytochrome P450 2D6) was 31.6 µM (inconclusive).
